Assay results reported in patent publication US9731027B2, “Somatostatin-dopamine chimeric analogs” (Ipsen Pharma S.A.S., priority 2012, dated 2017).
Read-outs that look alike come from different tables or passages of the source. Bridge positions count the residues as written; N and C are the ends. Square brackets hold non-standard residues; d marks the D form. Peptide text beside a SMILES is read from it. * marks the point of attachment. X2 = CN1C[C@H](CSCC(=O)*)C[C@@H]2c3cccc4[nH]cc(c34)C[C@H]21

Experiments:
[1] = system: pituitary tumor cells of acromegalic patients presenting with macroadenoma; test: Human pituitary adenoma cell growth hormone release assay; format: cell-based; conditions: 18 hours incubation, AlphaLISA GH immunoassay; FIG. 5
Method: FIG. 1 is a graph showing the Growth hormone suppressing activity of Compound 4 (see Table I hereinbelow for its chemical name and its corresponding structural representation) on pituitary tumor cells of acromegalic patients presenting with macroadenoma. Various concentrations of Compound 4 were added to the medium and the cells were incubated for 18 hours before measurement of Growth hormone levels in the medium using the AlphaLISA Growth Hormone Immunoassay Research kit (PerkinElmer).
Various concentrations of Compounds 4 and 5 were added to the medium and the cells were incubated for 18 hours before measurement of Growth hormone levels in the medium using the AlphaLISA Growth Hormone Immunoassay Research kit (PerkinElmer).
Acromegalic patients presenting with macroadenoma underwent transsphenoidal surgery and a portion of each tumor obtained at surgery was dissociated by enzymatic and mechanical methods. The cells were cultured in DMEM medium supplemented with 10% FBS and antibiotics for 3 days. The cells were then plated in multi-well tissue culture dishes coated with extracellular matrix from bovine endothelial corneal cells at a density of 3-5×10^4 cells/well in DMEM supplemented with 10% FBS and antibiotics. After 2-3 days of culture, the medium was changed to DMEM supplemented with 1% FBS, antibiotics and 1% ITS (insulin, transferrin and selenium).

hSSTR2 [2] = target: T1, hSSTR2 (Homo sapiens, UniProt P30874); test: Intracellular calcium mobilization assay (FLIPR Calcium 4), hSSTR2; format: cell-based
T1 construct: host or cells: 'Cells expressing hSSTR2'
Method: The ability of select compounds according to the present invention to activate hSSTR2 and hDRD2 was determined by the intracellular calcium mobilization assay using FLIPR Calcium 4 assay kit (Molecular Devices).
Cells expressing hSSTR2 or hDRD2 were plated in 384-well microplates in tissue culture media and incubated for 16-24 hours at 37° C. in a humidified atmosphere with 5% CO2. Medium was replaced by loading buffer containing Hank's buffered saline, 20 mM HEPES, 2.5 mM probenecid and Calcium 4 dye, and the plates were incubated at 37° C. for 60 minutes.

hSSTR2 [3] = target: T1, hSSTR2; test: Somatostatin receptor radioligand binding assay, hSSTR2
Method: The affinities of a test compound for the human somatostatin receptors were determined by radioligand binding assays in CHO-K1 cells stably transfected with each of the human somatostatin receptor subtypes, hSSTR1-5. The cDNA coding sequences of hSSTR1 (GenBank accession No. NM_001049.1), hSSTR2 (GenBank accession No. XM_012697.1), hSSTR3 (GenBank accession No. XM_009963.1), hSSTR4 (GenBank accession No. NM_001052.1), and hSSTR5 (GenBank accession No. XM_012565.1) were subcloned into the mammalian expression vector pcDNA3.1 (Life Technologies). Clonal cell lines stably expressing each of the somatostatin receptors were obtained by transfection into CHO-K1 cells (ATCC) and subsequently selected with culture media containing 0.8 mg/mL of G418 (Life Technologies).
Membranes for in vitro receptor binding assays were obtained by the following procedures. […] The supernatant containing the plasma membranes was centrifuged at 100,000×g for 30 minutes and the pellet was resuspended in buffer containing 20 mM glycine-glycine, 1 mM MgCl2, 250 mM sucrose, pH 7.2, for storage at −80° C. […]

T1 sequence (P30874 whole entry): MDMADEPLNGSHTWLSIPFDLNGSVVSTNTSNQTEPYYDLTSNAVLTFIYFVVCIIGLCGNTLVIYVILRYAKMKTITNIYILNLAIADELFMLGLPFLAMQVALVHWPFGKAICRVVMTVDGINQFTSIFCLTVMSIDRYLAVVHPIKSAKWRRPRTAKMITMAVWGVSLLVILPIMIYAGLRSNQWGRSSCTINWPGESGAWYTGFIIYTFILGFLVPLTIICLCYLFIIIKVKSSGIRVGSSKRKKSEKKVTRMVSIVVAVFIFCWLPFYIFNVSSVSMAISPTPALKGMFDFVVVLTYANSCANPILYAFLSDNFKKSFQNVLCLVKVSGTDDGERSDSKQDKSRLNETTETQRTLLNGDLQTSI

**Q.** With C[C@@H](O)[C@@H]1NC(=O)[C@H](CCCCN)NC(=O)[C@@H](Cc2c[nH]c3ccccc23)NC(=O)[C@H](Cc2ccncc2)NC(=O)[C@H](Cc2ccccc2)NC(=O)[C@H](CCCNC(=N)N)NC(=O)[C@H](NC[C@H](Cc2ccc(O)cc2)NC(=O)CSC[C@@H]2C[C@@H]3c4cccc5[nH]cc(c45)C[C@H]3N(C)C2)CCCCNC(=O)[C@H](Cc2ccccc2)NC1=O [Compound 4, Dop1-Tyr-psi(CH2NH)-cyclo(DLys-Arg-Phe-4Pal-DTrp-Lys-Thr-Phe)] as the compound, how does the “Growth hormone suppressing activity compared to the parent somatostatin analogs” value [1] read?
**A.** enhanced Growth hormone suppressing activity

**Q.** C[C@@H](O)[C@@H]1NC(=O)[C@H](CCCCN)NC(=O)[C@@H](Cc2c[nH]c3ccccc23)NC(=O)[C@H](Cc2ccccc2)NC(=O)[C@H](Cc2ccccc2)NC(=O)[C@H](CCCNC(=N)N)NC(=O)[C@H](NC[C@H](Cc2ccc(O)cc2)NC(=O)CSC[C@@H]2C[C@@H]3c4cccc5[nH]cc(c45)C[C@H]3N(C)C2)CCCCNC(=O)[C@H](Cc2ccc(F)cc2)NC1=O [Compound 5, Dop1-Tyr-psi(CH2NH)-cyclo(DLys-Arg-Phe-Phe-DTrp-Lys-Thr-4FPhe)] was tested. Which “Growth hormone suppressing activity compared to the parent somatostatin analogs” value [1] did it give?
**A.** enhanced Growth hormone suppressing activity

**Q.** How did the EC50 (hSSTR2 [2]) turn out when C[C@@H](O)[C@@H]1NC(=O)[C@H](CCCCN)NC(=O)[C@@H](Cc2c[nH]c3ccccc23)NC(=O)[C@H](Cc2ccccc2)NC(=O)[C@H](Cc2ccccc2)NC(=O)[C@H](CCCNC(=N)N)NC(=O)[C@@H](NC[C@H](Cc2ccc(O)cc2)NC(=O)CSC[C@@H]2C[C@@H]3c4cccc5[nH]cc(c45)C[C@H]3N(C)C2)CCCNC(=O)[C@H](Cc2ccccc2)NC1=O [Compound 43, Dop1-Tyr-psi(CH2NH)-cyclo(Orn-Arg-Phe-Phe-DTrp-Lys-Thr-Phe)] was run?
**A.** 31.6 ± 4.3 nM

**Q.** And the Ki (hSSTR2 [3])?
**A.** 1.07 ± 0.39 nM

**Q.** With C[C@@H](O)[C@@H]1NC(=O)[C@H](CCCCN)NC(=O)[C@@H](Cc2c[nH]c3ccccc23)NC(=O)[C@H](Cc2ccccc2)NC(=O)[C@H](Cc2ccccc2)NC(=O)[C@H](CCCNC(=N)N)NC(=O)[C@H](NC(=O)CSC[C@@H]2C[C@@H]3c4cccc5[nH]cc(c45)C[C@H]3N(C)C2)CCCCNC(=O)[C@H](Cc2ccccc2)NC1=O [Compound 44, Dop1-cyclo(DLys-Arg-Phe-Phe-DTrp-Lys-Thr-Phe)] (X2-[dK]RFF[dW]KTF; lactam 1-C) as the compound, how does the Emax (hSSTR2 [2]; read-out: hSSTR2 % Emax ± SEM) read?
**A.** 97.1 ± 5.9%

**Q.** What does the source list for C[C@@H](O)[C@@H]1NC(=O)[C@H](CCCCN)NC(=O)[C@@H](Cc2c[nH]c3ccccc23)NC(=O)[C@H](Cc2ccc(O)cc2)NC(=O)[C@H](Cc2ccncc2)NC(=O)[C@H](CCCNC(=N)N)NC(=O)[C@H](NC[C@@H](Cc2ccc(O)cc2)NC(=O)CSC[C@@H]2C[C@@H]3c4cccc5[nH]cc(c45)C[C@H]3N(C)C2)CCCCNC(=O)[C@H](Cc2ccccc2)NC1=O [Compound 46, Dop1-DTyr-psi(CH2NH)-cyclo(DLys-Arg-4Pal-Tyr-DTrp-Lys-Thr-Phe)]?
**A.** EC50 (hSSTR2 [2]; calcium mobilization, cells expressing hSSTR2, read-out: hSSTR2 EC50 (nM) ± SEM): 60 nM; Ki (hSSTR2 [3]; CHO-K1 membranes, [125I-Tyr]-seglitide, read-out: hSSTR2 Ki (nM) ± SEM): 0.52 ± 0.06 nM
